# Test results: patent US6653306B1, “Epoxy-steroidal aldosterone antagonist and angiotensin II antagonist combination therapy” (G.D. Searle & Co., priority 1995, dated 2003)
# Key:
# [1] = biological target: angiotensin II AT1 receptor; experiment: Assay A: Angiotensin II binding activity (125I-AII displacement, rat uterine membrane preparation)
# rabbit aortic rings = experiment: Assay B: In vitro vascular smooth muscle response for AII (antagonist activity, pA2); format: cell-based; conditions: Oryctolagus cuniculus, in vitro vascular smooth muscle response; two values per cell separated by / are separate determinations; read-out: Assay B pA2 (converted)
# Procedure: Assay B: In Vitro Vascular Smooth Muscle-response for AII
# The compounds of the invention were tested for antagonist activity in rabbit aortic rings. Male New Zealand white rabbits (2-2.5 kg) were sacrificed using an overdose of pentobarbital and exsanguinated via the carotid arteries. The thoracic aorta was removed, cleaned of adherent fat and connective tissue and then cut into 3-mm ring segments. The endothelium was removed from the rings by gently sliding a rolled-up piece of filter paper into the vessel lumen. The rings were then mounted in a water-jacketed tissue bath, maintained at 37° C., between moveable and fixed ends of a stainless steel wire with the moveable end attached to an FT03 Grass transducer coupled to a Model 7D Grass Polygraph for recording isometric force responses. The bath was filled with 20 ml of oxygenated (95% oxygen/5% carbon dioxide) Krebs solution of the following composition (mM): 130 NaCl, […], 15 KCl, 1.2 NaH2PO4, 1.2 MgSO4, 2.5 CaCl2, and 11.4 glucose. The preparations were equilibrated for one hour before approximately one gram of passive tension was placed on the rings. Angiotensin II concentration-response curves were then recorded (3×10^−10 to 1×10^−5 M). Each concentration of AII was allowed to elicit its maximal contraction, and then AII was washed out repeatedly for 30 minutes before rechallenging with a higher concentration of AII. Aorta rings were exposed to the test antagonist at […] for 5 minutes before challenging with AII. Adjacent segments of the same aorta ring were used for all concentration-response curves in the presence or absence of the test antagonist. The effectiveness of the test compound was expressed in terms of pA2 values and were calculated according to H. O. Schild [Br. J. Pharmacol, Chemother., 2,189-206 (1947)]. The pA2 value is the concentration of the antagonist which increases the EC50 value for AII by a factor of two. Each test antagonist was evaluated in aorta rings from two rabbits.
SMILES,IC50 [1],Kb (rabbit aortic rings)
CCCCc1nc(C(=O)Cc2ccccc2)nn1Cc1ccc(-c2ccccc2-c2nnn[nH]2)cc1 [Compound 50],54 nM,19.5 nM
CCCCc1nc(C(F)(F)Cc2ccccc2)nn1Cc1ccc(-c2ccccc2-c2nnn[nH]2)cc1 [Compound 51],8.7 nM,4.07 nM
CCCCc1nc(C(=O)O)nn1Cc1ccc(-c2ccccc2-c2nnn[nH]2)cc1 [Compound 52],100 nM,7.24 nM
CCCCc1ncnn1Cc1ccc(-c2ccccc2-c2nnn[nH]2)cc1 [Compound 53],65 nM,27.5 nM
CCCCc1ncn(Cc2ccc(-c3ccccc3-c3nnn[nH]3)cc2)n1 [Compound 54],3100 nM,955 nM
CCCCc1nc(CCCC2CCCCC2)n(Cc2ccc(-c3ccccc3-c3nnn[nH]3)cc2)n1 [Compound 57],2300 nM,1000 nM
CCCCc1nc(CCCC2CCCCC2)nn1Cc1ccc(-c2ccccc2-c2nnn[nH]2)cc1 [Compound 58],140 nM,355 nM
CCCCc1nc(CC23CC4CC(CC(C4)C2)C3)nn1Cc1ccc(-c2ccccc2-c2nnn[nH]2)cc1 [Compound 62],26 nM,2.04 nM
CCCCc1nc(CCC(=O)O)nn1Cc1ccc(-c2ccccc2-c2nnn[nH]2)cc1 [Compound 63],61 nM,17 nM
CCCCc1nc(CCC(=O)O)n(Cc2ccc(-c3ccccc3-c3nnn[nH]3)cc2)n1 [Compound 64],54 nM,100 nM
CCCCc1nc(C2CCCCC2)n(Cc2ccc(-c3ccccc3-c3nnn[nH]3)cc2)n1 [Compound 65],23 nM,14.1 nM
CCCCc1nc(CCCNC(=O)OC(C)(C)C)n(Cc2ccc(-c3ccccc3-c3nnn[nH]3)cc2)n1 [Compound 67],3100 nM,1320 nM
CCCCc1nc(CCCN)nn1Cc1ccc(-c2ccccc2-c2nnn[nH]2)cc1 [Compound 72],83 nM,776 nM
CCCCc1nc(CC2CCCCC2)n(Cc2ccc(-c3ccccc3-c3nnn[nH]3)cc2)n1 [Compound 73],790 nM,22.4 nM
CCCCc1nc(CC2CCCCC2)nn1Cc1ccc(-c2ccccc2-c2nnn[nH]2)cc1 [Compound 74],6.5 nM,2.75 nM
CCCCc1nc(CC)n(Cc2ccc(-c3ccccc3C(=O)O)cc2)n1 [Compound 76],5400 nM,3020 nM
CCCCc1nc(C)n(Cc2ccc(-c3ccccc3C(=O)O)cc2)n1 [Compound 77],15000 nM,1700 nM
CCCCc1nn(CCCC)c(=O)n1Cc1ccc(-c2ccccc2-c2nnn[nH]2)cc1 [Compound 79],4.9 nM,0.631 nM
CCCCc1nn(CC(=O)C23CC4CC(CC(C4)C2)C3)c(=O)n1Cc1ccc(-c2ccccc2-c2nn[nH]n2)cc1 [Compound 80],25 nM,7.94 nM
CCCCCCn1nc(CCCC)n(Cc2ccc(-c3ccccc3-c3nn[nH]n3)cc2)c1=O [Compound 85],8.7 nM,1.26 nM

SMILES,IC50 [1],Kb (rabbit aortic rings)
CCCCc1nn(CC(=O)OCC)c(=O)n1Cc1ccc(-c2ccccc2-c2nn[nH]n2)cc1 [Compound 86],9 nM,15.8 nM
CCCCc1nn(CC(=O)O)c(=O)n1Cc1ccc(-c2ccccc2-c2nn[nH]n2)cc1 [Compound 87],91 nM,15.8 nM
CCCCc1nn(CCC2CCCCC2)c(=O)n1Cc1ccc(-c2ccccc2-c2nn[nH]n2)cc1 [Compound 89],18 nM,12.6 nM
CCCCCn1nc(CCCC)n(Cc2ccc(-c3ccccc3-c3nn[nH]n3)cc2)c1=O [Compound 90],5.6 nM,1 nM
CCCCc1nn(CCC(C)CC(C)(C)C)c(=O)n1Cc1ccc(-c2ccccc2-c2nn[nH]n2)cc1 (centres unmarked) [Compound 92],35 nM,12.6 nM
CCCCc1nn(C(=O)CCC)c(=O)n1Cc1ccc(-c2ccccc2-c2nn[nH]n2)cc1 [Compound 95],66 nM,6.31 nM
CCCCc1nn(CC(=O)c2cc(OC)ccc2OC)c(=O)n1Cc1ccc(-c2ccccc2-c2nn[nH]n2)cc1 [Compound 96],21 nM,10 nM
CCCCc1nn(CC(OCc2ccccc2)c2ccccc2)c(=O)n1Cc1ccc(-c2ccccc2-c2nn[nH]n2)cc1 (centres unmarked) [Compound 97],280 nM,20 nM
CCCCc1nn(CC(O)c2cc(OC)ccc2OC)c(=O)n1Cc1ccc(-c2ccccc2-c2nn[nH]n2)cc1 (centres unmarked) [Compound 98],22 nM,7.94 nM
CCCCc1nn(Cc2ccc3ccccc3c2)c(=O)n1Cc1ccc(-c2ccccc2-c2nn[nH]n2)cc1 [Compound 99],280 nM,316 nM
CCCCc1nn(C(CC(=O)OCC)C(=O)c2ccccc2)c(=O)n1Cc1ccc(-c2ccccc2-c2nn[nH]n2)cc1 (centres unmarked) [Compound 101],36 nM,15.8 nM
CCCCc1nn(C(C)(C)C(=O)c2ccccc2)c(=O)n1Cc1ccc(-c2ccccc2-c2nn[nH]n2)cc1 [Compound 102],43 nM,20 nM
CCCCc1nn(CCCCC(=O)O)c(=O)n1Cc1ccc(-c2ccccc2-c2nn[nH]n2)cc1 [Compound 103],12 nM,10 nM
CCCCc1nn(CC2CC2)c(=O)n1Cc1ccc(-c2ccccc2-c2nn[nH]n2)cc1 [Compound 104],15 nM,10 nM
CCCCn1nc(C(C#N)CCC)n(Cc2ccc(-c3ccccc3-c3nn[nH]n3)cc2)c1=O (centres unmarked) [Compound 106],48 nM,20 nM
CCCCc1nn(CC(OCC(=O)OCC)c2ccccc2)c(=O)n1Cc1ccc(-c2ccccc2-c2nn[nH]n2)cc1 (centres unmarked) [Compound 107],180 nM,5.01 nM
CCCCc1nc2c(Cl)nnc(Cl)c2n1Cc1ccc(-c2ccccc2-c2nnn[nH]2)cc1 [Compound 110],590 nM,398 nM
CCCCc1nc2c(OCC)nnc(OCC)c2n1Cc1ccc(-c2ccccc2-c2nnn[nH]2)cc1 [Compound 112],2000 nM,6310 nM
CCCCc1nc(Cc2ccc(-c3ccccc3C(=O)O)cc2)n(CCCC)n1 [Compound 126],240 nM,63.1 nM
CCCCc1nc(Cc2ccc(-c3ccccc3C(=O)O)cc2)nn1CCCC [Compound 127],12000 nM,11000 nM

SMILES,IC50 [1],Kb (rabbit aortic rings)
CCCCc1nc(Cc2ccc(-c3ccccc3-c3nnn[nH]3)cc2)n(CCCC)n1 [Compound 128],16 nM,2.34 nM
CCCCc1nc(Cc2ccc(-c3ccccc3-c3nnn[nH]3)cc2)nn1CCCC [Compound 129],6700 nM,5010 nM
CCCCn1nc(C(F)(F)CCC)nc1Cc1ccc(-c2ccccc2-c2nnn[nH]2)cc1 [Compound 130],40 nM,7.94 nM
CCCCc1cn(CCCC)c(=O)n1Cc1ccc(-c2ccccc2-c2nnn[nH]2)cc1 [Compound 132],12 nM,2.51 nM
CCCCc1c(C)n(CCCC)c(=O)n1Cc1ccc(-c2ccccc2-c2nnn[nH]2)cc1 [Compound 137],220 nM,5.01 nM
CCCc1cn(CCC)c(=O)n1Cc1ccc(-c2ccccc2-c2nnn[nH]2)cc1 [Compound 138],130 nM,6.31 nM
CCCCc1nc(CCCC)n(Cc2ccc(-n3c(Br)ccc3-c3nnn[nH]3)cc2)n1 [Compound 141],0.11 nM,9.55 nM
CCCCn1nc(CCc2ccccc2)nc1Cc1ccc(-c2ccccc2-c2nnn[nH]2)nc1 [Compound 151],17 nM,17.4 nM
CCCCn1nc(/C=C/c2cccs2)nc1Cc1ccc(-c2ccccc2-c2nnn[nH]2)nc1 [Compound 154],97 nM,6.46 nM
CCCCc1nc(Cc2ccc(-c3ccccc3-c3nnn[nH]3)nc2)n(CC(CC)CC)n1 [Compound 157],530 nM,603 nM
CCCCn1nc(C(=O)CCC)nc1Cc1ccc(-c2ccccc2-c2nnn[nH]2)nc1 [Compound 160],64 nM,13.5 nM
CCCn1nc(C(C)(F)F)nc1Cc1ccc(-c2ccccc2-c2nnn[nH]2)nc1 [Compound 165],410 nM,126 nM
CCCCn1nc(C(C)(F)F)nc1Cc1ccc(-c2ccccc2-c2nnn[nH]2)nc1 [Compound 166],160 nM,26.9 nM
CCCn1nc(C(F)(F)CC)nc1Cc1ccc(-c2ccccc2-c2nnn[nH]2)nc1 [Compound 167],370 nM,83.2 nM
CCCCn1nc(C(F)(F)CC)nc1Cc1ccc(-c2ccccc2-c2nnn[nH]2)nc1 [Compound 168],420 nM,20.4 nM
CCCCn1nc(C(=O)NC)nc1Cc1ccc(-c2ccccc2-c2nnn[nH]2)nc1 [Compound 172],70 nM,70.8 nM
CCCn1nc(C(OC)OC)nc1Cc1ccc(-c2ccccc2-c2nnn[nH]2)nc1 [Compound 174],180 nM,51.3 nM
CCCCn1nc(C(OC(C)C)OC(C)C)nc1Cc1ccc(-c2ccccc2-c2nnn[nH]2)nc1 [Compound 178],88 nM,28.8 nM
